Settings: Liquid, Vibrating tube method

CCCCCCC(=O)OCC(COC(=O)CCCCCC)(COC(=O)CCCCCC)COC(=O)CCCCCC [pentaerythritol tetraheptanoate]
Settings	mass density [kg/m3]
323.15 K, 32352 kPa	976
323.15 K, 32396 kPa	976
323.15 K, 32734 kPa	976.2
323.15 K, 32779 kPa	976.2
323.15 K, 32824 kPa	976.2
323.15 K, 32870 kPa	976.3
323.15 K, 32924 kPa	976.3
323.15 K, 32970 kPa	976.3
323.15 K, 33016 kPa	976.4
323.15 K, 33072 kPa	976.4
323.15 K, 33118 kPa	976.4
323.15 K, 33164 kPa	976.4
323.15 K, 33219 kPa	976.5
323.15 K, 33314 kPa	976.4
323.15 K, 33463 kPa	976.7
323.15 K, 33519 kPa	976.7
323.15 K, 33566 kPa	976.7
323.15 K, 33612 kPa	976.6
323.15 K, 33657 kPa	976.7
323.15 K, 33718 kPa	976.7
323.15 K, 33778 kPa	976.7
323.15 K, 33830 kPa	976.8
323.15 K, 33882 kPa	976.7
323.15 K, 33940 kPa	976.9
323.15 K, 33970 kPa	976.8
323.15 K, 34065 kPa	976.9
323.15 K, 34098 kPa	977
323.15 K, 34123 kPa	977
323.15 K, 34149 kPa	977.1
323.15 K, 34181 kPa	977
323.15 K, 34207 kPa	977.1
323.15 K, 34235 kPa	977.1
323.15 K, 34262 kPa	977.1
323.15 K, 34295 kPa	977
323.15 K, 34323 kPa	977.2
323.15 K, 34351 kPa	977.1
323.15 K, 34379 kPa	977.2
323.15 K, 34415 kPa	977.1
323.15 K, 34444 kPa	977.2
323.15 K, 34481 kPa	977.2
323.15 K, 34513 kPa	977.3
323.15 K, 34545 kPa	977.2
323.15 K, 34570 kPa	977.3
323.15 K, 34571 kPa	977.2
323.15 K, 34574 kPa	977.2
323.15 K, 34576 kPa	977.3
323.15 K, 34578 kPa	977.2
323.15 K, 34581 kPa	977.3
323.15 K, 34584 kPa	977.2
323.15 K, 34586 kPa	977.3
323.15 K, 34589 kPa	977.3
323.15 K, 34593 kPa	977.2
323.15 K, 34596 kPa	977.3
323.15 K, 34600 kPa	977.3
323.15 K, 34605 kPa	977.3
323.15 K, 34611 kPa	977.3
323.15 K, 34616 kPa	977.2
343.13 K, 13322 kPa	950.4
343.13 K, 13336 kPa	950.3
343.13 K, 13347 kPa	950.4
343.13 K, 13362 kPa	950.3
343.13 K, 13471 kPa	950.5
343.13 K, 13485 kPa	950.5
343.14 K, 13145 kPa	950
343.14 K, 13156 kPa	950.2
343.14 K, 13167 kPa	950.1
343.14 K, 13180 kPa	950.2
343.14 K, 13192 kPa	950.3
343.14 K, 13203 kPa	950.3
343.14 K, 13216 kPa	950.2
343.14 K, 13227 kPa	950.2
343.14 K, 13238 kPa	950.2
343.14 K, 13252 kPa	950.1
343.14 K, 13263 kPa	950.3
343.14 K, 13274 kPa	950.4
343.14 K, 13286 kPa	950.4
343.14 K, 13300 kPa	950.3
343.14 K, 13311 kPa	950.2
343.14 K, 13373 kPa	950.2
343.14 K, 13384 kPa	950.4
343.14 K, 13399 kPa	950.4
343.14 K, 13410 kPa	950.5
343.14 K, 13420 kPa	950.4
343.14 K, 13431 kPa	950.5
343.14 K, 13448 kPa	950.3
343.14 K, 13460 kPa	950.4
343.14 K, 13497 kPa	950.4
343.14 K, 13509 kPa	950.4
343.14 K, 13521 kPa	950.4
343.14 K, 13535 kPa	950.5
343.14 K, 13547 kPa	950.5
343.14 K, 13560 kPa	950.6
343.14 K, 13574 kPa	950.5
343.14 K, 13586 kPa	950.6
343.14 K, 13598 kPa	950.5
343.14 K, 13610 kPa	950.6
343.14 K, 13622 kPa	950.6
343.14 K, 13636 kPa	950.6
343.14 K, 13648 kPa	950.7
343.14 K, 13870 kPa	950.7
343.14 K, 13883 kPa	950.7
343.14 K, 13898 kPa	950.7
343.14 K, 13911 kPa	950.8
343.14 K, 13926 kPa	950.7
343.14 K, 13938 kPa	950.8
343.14 K, 13951 kPa	950.8
343.14 K, 13964 kPa	950.8
343.14 K, 13977 kPa	950.7
343.14 K, 13992 kPa	950.8
343.14 K, 14004 kPa	950.8
343.14 K, 14018 kPa	950.8

— the NIST ThermoML archive (doi:10.1021/je060271a)
